According to patent US11452781B2, “Method of preventing and treating type 1 diabetes, allograft rejection and lung fibrosis (by targeting the ATP/P2X7R axis)” (CHILDREN'S MEDICAL CENTER CORPORATION, priority 2013, dated 2022):
Entries after “also recorded” stand apart in the source; their conditions may differ.

Assays:
[1] = tested on: splenocytes of islet-transplanted mice; test: Immune profiling of islet-transplanted mice (ELISPOT, flow cytometry, serum cytokines); type: in vivo, mouse; conditions: day 14
Method: The effect of oATP treatment on the immune system of transplanted mice was tested. Splenocytes were collected in untreated or oATP-treated mice at day 14 after transplantation and challenged ex vivo in an ELISPOT assay with BALB/c irradiated splenocytes.
Immune profiling of islet-transplanted oATP-treated and untreated mice was performed at day 14 after transplantation.

naïve Th0 cells = test: Th1/Th17 generation and differentiation assay; type: cell-based, mouse; conditions: 100 μM oATP
Method: Naïve Th0 cells were differentiated into Th1 or Th17 cells, and IFN-γ^+ and IL-17^+ cells were quantified by flow cytometry. Addition of 100 μM oATP inhibited the conversion of naïve Th0 cells into Th1 (FIGS. 6A-6B) and Th17 cells (FIGS. 6C-6D).
(§1) To address the mechanisms underlying P2X7R targeting mediated inhibition of cardiac transplant rejection, the inventors analyzed the effect of P2X7R targeting on T-cell activation and Th1/Th17 differentiation in vitro. […] The effect of in vitro P2X7R targeting with oATP during CD4+ T-cell activation was tested. […] Second, in a T-cell proliferation assay, carboxyfluorescein diacetate succinimidyl ester-labeled naïve CD4+ T cells were stimulated for 96 hours with 0.5 μg/mL anti-CD3-Ig and anti-CD28-Ig, and treatment with 100 μM oATP diminished CD4+ T cell proliferation in comparison with controls. […] The inventors next tested the effect of in vitro P2X7R targeting during a Th1/Th17 generation and differentiation assay. […] P2X7R targeting with oATP inhibited Th0 conversion into both Th1 and Th17, as assessed by the percentage of IFN-γ+ and IL-17+ cells, respectively. […] In a Th1/Th17 generation assay, pmY-P2X7R CD4+ T cells seemed to display increased differentiation capacity in comparison with pmY-mock CD4+ T cells, as assessed by T-bet and ROR-γ expression.

[2] = tested on: C57BL/6 mice transplanted with BALB/c hearts; type: in vivo, mouse; design: long-term cardiac transplant survival (>100 days), share of recipients: dose or concentration left out as unconfirmed; conditions: oATP i.p. daily for 14 days
Method: The effect of P2X7R targeting in preventing cardiac transplant rejection was tested using the P2X7R inhibitor oATP.

[3] = tested on: splenocytes of cardiac-transplanted mice; test: Immune profiling of cardiac-transplanted mice (ELISPOT with BALB/c irradiated splenocytes, flow cytometry); type: in vivo, mouse
Method: To evaluate the effect of P2X7R targeting on the immune system of cardiac-transplanted mice, splenocytes were harvested at days 7 and 100 post-transplantation and were challenged with BALB/c irradiated splenocytes in an ELISPOT assay.
The effect of P2X7R targeting in preventing cardiac transplant rejection was tested by using the P2X7R inhibitor oATP. Untreated C57BL/6 mice transplanted with BALB/c hearts (fully mismatched) invariably rejected grafts within 7 days (mean survival time of 7 days). P2X7R targeting with the use of the short-term treatment of oATP ([…] oATP intraperitoneally daily for 14 days) induced long-term cardiac transplant survival (>100 days) in 80% of recipients. To evaluate the effect of P2X7R targeting on the immune system of cardiac-transplanted mice, splenocytes were harvested at days 7 and 100 posttransplantation and were challenged with BALB/c irradiated splenocytes in an enzyme-linked immunosorbent spot (ELISPOT) assay. […] The percentages of CD4+ Teffs and CD8+ Teffs were reduced by in vivo short-term P2X7R targeting in mice at days 7 and 100 posttransplantation in comparison with untreated mice.
mice adoptively transferred with naïve C57BL/6 splenocytes, and no protection was observed when splenocytes obtained from mice with long-term graft function were coadoptively transferred with naïve splenocytes. Conversely, prolonged graft survival >50 days was observed when splenocytes obtained from cardiac-transplanted mice with long-term graft function were adoptively transferred. […] The immunocompetence of treated mice at day 100 after transplantation was tested.

mouse CD8 T cells = test: Isolated CD8 T cells stimulated with anti-CD3, TNF-α, IFN-γ and granzyme B expression; type: cell-based; conditions: anti-CD3 10 μg/ml
[4] = tested on: B6 recipients of BALB/c lung allografts; test: Mouse orthotopic lung transplant, BALB/c donor and C57BL/6 recipient; type: in vivo
Method: Orthotopic left lung transplants were performed as previously described {Bizargity, #22; Iken, #21}. Briefly, donor mice were anesthetized with ketamine and xylazine, intubated with a 22 G Angiocath, and ventilated with isoflurane/oxygen. Lungs were flushed with ice cold phosphate buffered saline, left lung harvested and cuffs placed in the pulmonary artery, pulmonary vein and bronchus. Recipient mice were anesthetized and ventilated with isoflurane/oxygen, and left lung transplants performed via a thoracotomy and implantation of the three-cuffed hilar structures. Transplanted lungs were harvested 15 to 60-70 days following transplantation.
Allografts were evaluated 15, 30, and 60-70 days after transplant.
Outcome Measures—In vivo assessment of transplanted lung function was performed by thoracic CT scan imaging and measuring peak airway pressures (PawP) as previously described {Bizargity, #22}. […] Flow cytometry and enzyme-linked immunosorbent spot assay (ELISPOT) for interferon (IFN)-γ and interleukin (IL)-4 were performed as previously described {Vergani, #25; Vergani, #9}.

naïve CD4+ T-cells = test: ELISPOT, naïve CD4+ T cells stimulated with anti-CD3-Ig and anti-CD28-Ig; type: cell-based, mouse
Method: The effect of P2X7R targeting was tested by treatment with oATP during T-cell activation. […] Similarly, in a T-cell proliferation assay, CFSE-labeled naïve CD4^+ T-cells were stimulated for 4 days with 0.5 μg/ml anti-CD3-Ig and anti-CD28-Ig; treatment with 100 μM oATP diminished CD4^+ T-cell proliferation (FIG. 5B, right panel) compared to controls (FIG. 5B, left panel).
as §1, with “respectively. The inventors show, therefore, that P2X7R targeting through oATP suppresses activation, proliferation, and Th1/Th17 differentiation of CD4+ T cells. The inventors then further investigated the role of P2X7R on T-cell activation and Th1/Th17 differentiation by genetic upregulation of P2X7R. P2X7R cDNA was transduced by using a pMY-IRES-GFP retroviral vector into CD4+ T cells (pmY-P2X7R CD4+ T cells), and upregulation of P2X7R expression was confirmed by Western blot. pmY-P2X7R CD4+ T cells were then challenged with anti-CD3-Ig/anti-CD28-Ig stimulation in an ELISPOT assay.” for “respectively.”
Several key components of T-cell receptor signaling involved in the alloimmune response were examined, and the phosphorylation kinetics following in vitro anti-CD3-Ig/anti-CD28-Ig-mediated CD4+ T-cell activation was evaluated by using the Luminex assay. […] The inventors first confirmed that Colivelin (Col) was able to restore the activation-induced phosphorylation of STAT3 in a dose-dependent manner in oATP-treated CD4+ T cells by Western blotting. […] The effect of oATP and Colivelin on STAT3 phosphorylation and T-cell function was also evaluated following cardiac transplantation.

Substance: periodate-oxidized ATP [oATP]
- Th17 cells [1]: reduced; also recorded: Slight reductions
- number of cells producing IL-4 [1]: no effect
- percentages of CD8+ T effector cells [1]: Slight reductions
- percentages of peripheral CD4+ T effector cells [1]: No significant changes
- percentages of regulatory T-cells [1]: No differences
- serum IL-6 [1]: reduced
- conversion of naïve Th0 cells into Th1 (IFN-γ+ cells) (naïve Th0 cells): inhibited
- conversion of naïve Th0 cells into Th17 (IL-17+ cells) (naïve Th0 cells): inhibited
- long-term cardiac transplant survival (>100 days), share of recipients [2]: 80%
- percentage of Tregs ([3]; day 7): No differences
- percentage of Tregs ([3]; day 100): an increase
- percentages of CD4+ Teffs and CD8+ Teffs ([3]; days 7 and 100 vs untreated): reduced
- IFN-γ-producing cells after ovalbumin immunization (immunocompetence) ([3]; oATP-treated mice at day 100 vs naïve mice): no differences
- number of IL-4-producing cells (ELISPOT) ([3]; oATP-treated vs untreated, day 7): increased
- number of IFN-γ-producing cells (ELISPOT) ([3]; oATP-treated vs untreated, day 7 (and day 100)): Reduced; also recorded: fewer
- percentage of Th17 cells (CD4+IL17+) ([3]; vs untreated, days 7 and 100): similarly reduced; also recorded: fewer
- expression of TNF-α, IFN-γ and granzyme B (mouse CD8 T cells): reduction; also recorded: impaired activation
- lung function (PawP) ([4]; 15 to ≥60 days): significantly improved
- percentage of Th17 cells ([4]; 15 days): not a significant difference
- total number of Th17 cells ([4]; 15 days): reduction; also recorded: fewer
- total number of Treg ([4]; 15 days): reduction; also recorded: fewer
- BAL ATP levels ([4]; 15 days post transplant): significant reduction
- acute rejection, comparison of treatments (FIG. 17) ([4]; 30 days, CSA 10 mg/kg/day, CTLA-4Ig 250 μg, oATP 250 μg/day, Rap 0.1 mg/kg/day): better outcomes than cyclosporine alone; also recorded: more robust as compared to CSA
- thoracic CT imaging of left lung allografts ([4]; all three time points): little infiltrate
- number of leucocytes and lymphocytes isolated from lung allografts ([4]; day 15, flow cytometry, vs untreated): nearly half; also recorded: significantly fewer
- effector memory T cells (CD44highCD62Llow) ([4]; lung allograft T cells): inhibitory effect; also recorded: significant reduction
- IFN-γ and IL-4 response of isolated T cells (ELISPOT) ([4]; most pronounced after 15 days): impaired
- CD4 and CD8 T cells within lung allografts ([4]; mouse, in vivo): decrease
- amount of inflammation (score 0-4) / histology ([4]; mouse, in vivo): remarkable reduction; also recorded: limited disease
- percentage of CD8 Tcm (CD8+CD44+CD62L+CCR7+) ([4]; mouse, in vivo): increased
- percentage of Treg ([4]; mouse, in vivo): not a remarkable difference
- lung allograft survival / function ([4]; oATP daily IP): > 60 days
- lung function (PawP) after rescue dosing ([4]; oATP days 15-30): improved; also recorded: significant improvement
- number of IFN-γ-producing CD4+ T-cells (naïve CD4+ T-cells; 100 μM oATP, 24 hours): significantly reduced; also recorded: suppressed
- expression levels of the P2XsR (naïve CD4+ T-cells; oATP present during stimulation): not influenced
